Experimental data from US20110144331A1, “Cinnoline Compounds for the Treatment of Anxiety, Cognitive and Mood Disorders” (AstraZeneca AB, priority 2005, published 2011).

How the values were obtained:
[1] = target: T1, human α2β3γ2 GABAA receptor (Homo sapiens, UniProt P18507+P47869); test: Two-electrode voltage-clamp in Xenopus oocytes, potentiation of GABA EC10 current, GABAA2; assay type: cell-based; conditions: percentage potentiation of GABA EC10 current divided by that of diazepam control
T1 construct: expressed in transfected cells; host or cells: Xenopus laevis oocytes injected with capped cRNA (α:β:γ 1:1:1)
T1 sequence (P47869 29-451): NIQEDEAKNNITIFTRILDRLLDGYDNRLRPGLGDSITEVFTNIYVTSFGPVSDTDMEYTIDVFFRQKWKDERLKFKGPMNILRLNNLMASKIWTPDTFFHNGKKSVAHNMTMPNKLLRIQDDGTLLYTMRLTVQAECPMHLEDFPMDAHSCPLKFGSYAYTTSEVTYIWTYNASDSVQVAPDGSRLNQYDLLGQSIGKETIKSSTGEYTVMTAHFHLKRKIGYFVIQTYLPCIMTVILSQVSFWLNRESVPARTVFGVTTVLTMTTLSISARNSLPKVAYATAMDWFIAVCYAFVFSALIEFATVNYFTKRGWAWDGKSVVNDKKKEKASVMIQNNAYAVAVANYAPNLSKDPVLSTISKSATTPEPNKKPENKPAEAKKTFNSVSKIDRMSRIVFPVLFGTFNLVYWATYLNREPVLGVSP
T1 sequence (P18507 40-475): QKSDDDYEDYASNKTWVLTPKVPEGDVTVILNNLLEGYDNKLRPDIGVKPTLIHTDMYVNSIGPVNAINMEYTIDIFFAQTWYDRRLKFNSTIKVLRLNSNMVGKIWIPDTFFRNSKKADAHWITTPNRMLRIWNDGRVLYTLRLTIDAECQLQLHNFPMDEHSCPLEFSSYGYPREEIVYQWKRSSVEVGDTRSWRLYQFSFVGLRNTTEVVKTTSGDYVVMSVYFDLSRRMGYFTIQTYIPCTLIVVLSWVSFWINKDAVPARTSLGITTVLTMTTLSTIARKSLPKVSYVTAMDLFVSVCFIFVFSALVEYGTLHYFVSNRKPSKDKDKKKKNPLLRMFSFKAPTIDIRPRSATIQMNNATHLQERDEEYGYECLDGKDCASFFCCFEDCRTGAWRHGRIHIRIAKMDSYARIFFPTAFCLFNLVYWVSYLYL
T1 sequence (P28472 26-473 partner): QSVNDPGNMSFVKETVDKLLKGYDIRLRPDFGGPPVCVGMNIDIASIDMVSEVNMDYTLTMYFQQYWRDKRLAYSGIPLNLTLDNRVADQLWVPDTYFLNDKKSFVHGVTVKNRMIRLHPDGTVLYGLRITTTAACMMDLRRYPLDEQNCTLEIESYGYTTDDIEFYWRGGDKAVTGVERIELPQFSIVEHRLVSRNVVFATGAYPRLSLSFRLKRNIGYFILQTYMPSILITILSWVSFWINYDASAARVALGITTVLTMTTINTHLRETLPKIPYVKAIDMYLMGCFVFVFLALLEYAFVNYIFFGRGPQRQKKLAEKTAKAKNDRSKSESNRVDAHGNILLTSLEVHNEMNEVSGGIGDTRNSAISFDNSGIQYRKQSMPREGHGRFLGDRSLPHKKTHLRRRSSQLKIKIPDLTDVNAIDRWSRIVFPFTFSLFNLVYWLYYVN
Description: (§1) GABAA receptors were heterologously expressed in Xenopus oocytes by injecting cRNA corresponding to human α1, α2, α3, α5, β2, β3 and γ2 subunits of the GABAA receptor genes. The specific subunit combinations (subtypes) were as follows: α1β2γ2, α2β3γ2, α3β3γ2, and α5β3γ2. The EC10 of GABA was approximated for each cell. Stability of GABA-mediated (EC10) current was established. Modulatory effect of test compound was determined and compared across subtypes. […] Thus, the assay can characterize modulatory effects and determine subtype selectivity of test compounds on major subtypes of GABAA receptors.
(§2) Surgically removed ovarian lobes were teased out in OR2 solution (82 NaCl, 2.5 KCl, 5 HEPES, 1.5 NaH2PO4, 1 MgCl2, 0.1 EDTA, in mM, pH 7.4). The oocytes were defolliculated by incubation in 25 mL OR2 containing 0.2% collagenase 1A (SIGMA) two times for about 60 minutes on a platform shaker and stored in Leibovitz's L-15 medium. Oocytes were injected the following day in 0.5× Leibovitz's L-15 medium containing […] gentamycin, 10 units/ml penicillin, and […] streptomycin.
(§3) Capped cRNAs from the linearized vectors containing human α1, β2 and γ2 subunits of the GABAA receptor genes were mixed in ratio of 1:1:30. Oocytes were injected with 25-50 nL of mixed RNA with an appx molar ratio for α1, β2, and γ2 as 1:1:10. Oocyte recordings were done 2-10 days after injection. The same methods apply to subtypes derived from α2β2γ2, α3β3γ2, and α5β3γ2, except for 1:1:1 ratio was used for α, β, and γ subunits.
(§4) All measurements were done in a medium containing ND-96 (96 NaCl, 2 KCl, 1.8 CaCl2.2H2O, 1 MgCl2.6H2O, 5 HEPES, in mM, pH 7.5). Two-electrode voltage-clamp recording was carried out using OpusXpress amplifier (Axon Instruments, Foster City, Calif.), which allows simultaneous recording from 8 oocytes. Oocytes were impaled with two electrodes of 1-2 MΩ tip resistance when filled with 3M KCl. Recordings were begun when membrane potential became stable at potentials negative to −50-−60 mV. Membrane potential was held at −60 mV. […] The concentration of GABA corresponded to the EC10 value calculated for each oocyte. The modulator pulses started 30 s before the GABA pulse so as to allow preincubation with the modulator. A set of 3 pulses with just GABA without modulator was given prior to the modulator-containing pulses to define the baseline GABA response. Two oocytes per each experiment were dedicated to observe the effect of diazepam on GABA response to ensure the presence of γ2 subunit in the GABAA pentameric complex, which imparts diazepam sensitivity to the complex.
(§5) Current amplitude (i) was measured from baseline to peak using Clampfit (Axon Inst., Foster City, Calif.). Potentiation was calculated as percent change from the baseline GABA current flux 100×(imod/icontrol)−1) where imod=current mediated by modulator+GABA and icontrol=current mediated by GABA alone. […] Similarly, a value of −50% potentiation means the presence of modulator caused a 50% decrease in the control current. Various other data shown here were fitted and plotted using GraphPad Prism (GraphPad Software, Inc. San Diego, Calif.). The percentage potentiation was converted to relative potentiation by dividing it with percentage potentiation value obtained from the same assay with diazepam as a control.

[2] = target: T2, human α1β2γ2 GABAA receptor (Homo sapiens, UniProt P14867+P18507); test: Two-electrode voltage-clamp in Xenopus oocytes, potentiation of GABA EC10 current, GABAA1; assay type: cell-based; conditions: percentage potentiation of GABA EC10 current divided by that of diazepam control
T2 construct: expressed in transfected cells; host or cells: Xenopus laevis oocytes injected with capped cRNA
T2 sequence (P14867 28-456): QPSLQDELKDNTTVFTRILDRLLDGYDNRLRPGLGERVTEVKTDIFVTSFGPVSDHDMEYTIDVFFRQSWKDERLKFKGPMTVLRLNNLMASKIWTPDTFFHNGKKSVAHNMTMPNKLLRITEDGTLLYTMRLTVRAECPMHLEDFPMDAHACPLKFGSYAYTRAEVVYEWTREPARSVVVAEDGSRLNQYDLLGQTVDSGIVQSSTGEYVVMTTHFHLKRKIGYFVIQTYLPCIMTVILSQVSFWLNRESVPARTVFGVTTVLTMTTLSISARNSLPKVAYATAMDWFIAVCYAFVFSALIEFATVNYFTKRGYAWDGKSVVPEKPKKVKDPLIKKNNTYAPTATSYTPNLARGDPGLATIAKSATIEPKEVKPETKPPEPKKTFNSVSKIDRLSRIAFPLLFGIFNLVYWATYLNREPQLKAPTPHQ
T2 sequence (P47870 25-512 partner limits assumed): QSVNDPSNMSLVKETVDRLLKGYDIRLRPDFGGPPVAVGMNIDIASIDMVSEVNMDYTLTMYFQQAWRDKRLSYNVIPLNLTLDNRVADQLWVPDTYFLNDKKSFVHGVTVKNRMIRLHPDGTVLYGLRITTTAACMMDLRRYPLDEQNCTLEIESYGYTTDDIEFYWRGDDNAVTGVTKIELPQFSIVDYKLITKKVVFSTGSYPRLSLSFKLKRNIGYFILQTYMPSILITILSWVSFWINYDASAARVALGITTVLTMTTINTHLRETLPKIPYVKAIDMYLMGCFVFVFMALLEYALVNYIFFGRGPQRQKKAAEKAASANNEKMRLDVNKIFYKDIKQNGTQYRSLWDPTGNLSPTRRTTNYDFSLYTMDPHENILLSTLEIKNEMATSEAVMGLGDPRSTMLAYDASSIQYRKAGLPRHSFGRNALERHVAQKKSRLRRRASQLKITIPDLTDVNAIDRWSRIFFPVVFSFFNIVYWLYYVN
T2 sequence (P18507 40-475): as the sequence (P18507 40-475) above
Description: as §1, §2, §3, §4, §5

CCCNC(=O)c1nnc2c(-c3cccc(F)c3F)cccc2c1N
Relative Potentiation for GABAA2 [1]: 0.17
Relative Potentiation for GABAA1 [2]: −0.11

CCCNC(=O)c1nnc2c(-c3ccc(OC)nc3OC)cccc2c1N
Relative Potentiation for GABAA2 [1]: 0.25
Relative Potentiation for GABAA1 [2]: 0.17

CCCNC(=O)c1nnc2c(-c3ccc(F)cc3OC)c(F)ccc2c1N
Relative Potentiation for GABAA2 [1]: 0.18
Relative Potentiation for GABAA1 [2]: −0.028

CCCNC(=O)c1nnc2c(-c3ccc(OC)cc3F)c(F)ccc2c1N
Relative Potentiation for GABAA2 [1]: 0.18
Relative Potentiation for GABAA1 [2]: 0.053

CCCNC(=O)c1nnc2c(-c3cccc(C)c3C)c(F)ccc2c1N
Relative Potentiation for GABAA2 [1]: 0.13
Relative Potentiation for GABAA1 [2]: 0.11

COc1cccc(F)c1-c1cccc2c(N)c(C(=O)NC3CC3)nnc12
Relative Potentiation for GABAA2 [1]: 0.16
Relative Potentiation for GABAA1 [2]: −0.048

CCCNC(=O)c1nnc2c(-c3cc(Cl)ccc3Cl)cccc2c1N
Relative Potentiation for GABAA2 [1]: 0.21
Relative Potentiation for GABAA1 [2]: 0.12

CCCNC(=O)c1nnc2c(-c3cc(F)ccc3C)c(F)ccc2c1N
Relative Potentiation for GABAA2 [1]: 0.12
Relative Potentiation for GABAA1 [2]: 0.032

CCCNC(=O)c1nnc2c(-c3cc(C)ccc3F)cccc2c1N
Relative Potentiation for GABAA2 [1]: 0.37
Relative Potentiation for GABAA1 [2]: 0.095

CCCNC(=O)c1nnc2c(-c3cnc4ccccc4c3)cccc2c1N
Relative Potentiation for GABAA2 [1]: 0.11
Relative Potentiation for GABAA1 [2]: −0.15

CCNC(=O)c1nnc2c(-c3cnc(OC)nc3OC)cccc2c1N
Relative Potentiation for GABAA2 [1]: 0.35
Relative Potentiation for GABAA1 [2]: 0.005

CCCNC(=O)c1nnc2c(-c3ccc(OC)cc3)cccc2c1N
Relative Potentiation for GABAA2 [1]: 0.06
Relative Potentiation for GABAA1 [2]: −0.11

CCCNC(=O)c1nnc2c(-c3ccc(C)c(C)c3)cccc2c1N
Relative Potentiation for GABAA2 [1]: 0.35
Relative Potentiation for GABAA1 [2]: 0.23

CCCNC(=O)c1nnc2c(-c3ccc(OC)c(C)c3)cccc2c1N
Relative Potentiation for GABAA2 [1]: 0.27
Relative Potentiation for GABAA1 [2]: 0.21

CCCNC(=O)c1nnc2c(-c3ccsc3)cccc2c1N
Relative Potentiation for GABAA2 [1]: 0.038
Relative Potentiation for GABAA1 [2]: −0.26

Nc1c(C(=O)NCC2CC2)nnc2c(-c3ccccc3)cccc12
Relative Potentiation for GABAA2 [1]: 0.24
Relative Potentiation for GABAA1 [2]: 0.11

CCCNC(=O)c1nnc2c(-c3ccccn3)cccc2c1N
Relative Potentiation for GABAA2 [1]: −0.032
Relative Potentiation for GABAA1 [2]: 0.027

CCCNC(=O)c1nnc2c(-c3cnc(OC)nc3)cccc2c1N
Relative Potentiation for GABAA2 [1]: 0.11
Relative Potentiation for GABAA1 [2]: −0.066

CCCNC(=O)c1nnc2c(-c3ccc(F)c(F)c3)cccc2c1N
Relative Potentiation for GABAA2 [1]: 0.12
Relative Potentiation for GABAA1 [2]: −0.14

CCCNC(=O)c1nnc2c(-c3ccc(OC)c(F)c3)cccc2c1N
Relative Potentiation for GABAA2 [1]: 0.19
Relative Potentiation for GABAA1 [2]: 0.03

CCCNC(=O)c1nnc2c(-c3cnccn3)cccc2c1N
Relative Potentiation for GABAA2 [1]: −0.01
Relative Potentiation for GABAA1 [2]: −0.067

CCCNC(=O)c1nnc2c(-c3cc(Cl)cc(Cl)c3)cccc2c1N
Relative Potentiation for GABAA2 [1]: 0.48
Relative Potentiation for GABAA1 [2]: 0.28

CCCNC(=O)c1nnc2c(-c3cnc(OC)c(F)c3)cccc2c1N
Relative Potentiation for GABAA2 [1]: 0.14
Relative Potentiation for GABAA1 [2]: −0.012

CCCNC(=O)c1nnc2c(-c3cnc(OC)c(Cl)c3)cccc2c1N
Relative Potentiation for GABAA2 [1]: 0.04
Relative Potentiation for GABAA1 [2]: 0.086

CCCNC(=O)c1nnc2c(-c3ccc(N(C)C)cc3)cccc2c1N
Relative Potentiation for GABAA2 [1]: 0.18
Relative Potentiation for GABAA1 [2]: 0.07

CCCNC(=O)c1nnc2c(-c3ccc(C)cc3)cccc2c1N
Relative Potentiation for GABAA2 [1]: 0.11
Relative Potentiation for GABAA1 [2]: 0.013

CCCNC(=O)c1nnc2c(-c3ccc4[nH]ccc4c3)cccc2c1N
Relative Potentiation for GABAA2 [1]: 0.16
Relative Potentiation for GABAA1 [2]: 0.15

CNC(=O)c1nnc2c(-c3cc(C)ccc3OC)cccc2c1N
Relative Potentiation for GABAA2 [1]: 0.43
Relative Potentiation for GABAA1 [2]: 0.19

CCCNC(=O)c1nnc2c(-c3cc(C)c(OC)c(C)c3)cccc2c1N
Relative Potentiation for GABAA2 [1]: 0.32
Relative Potentiation for GABAA1 [2]: 0.79

CCCNC(=O)c1nnc2c(-c3cc(F)ccc3F)c(F)ccc2c1N
Relative Potentiation for GABAA2 [1]: 0.098
Relative Potentiation for GABAA1 [2]: 0.013

CCCNC(=O)c1nnc2c(-c3cccc(OC(F)(F)F)c3)cccc2c1N
Relative Potentiation for GABAA2 [1]: 0.48
Relative Potentiation for GABAA1 [2]: 0.87

CCCNC(=O)c1nnc2c(-c3cccc(C(=O)O)c3)cccc2c1N
Relative Potentiation for GABAA2 [1]: 0.08
Relative Potentiation for GABAA1 [2]: −0.038

CCCNC(=O)c1nnc2c(-c3cc(OC)c(OC)c(OC)c3)cccc2c1N
Relative Potentiation for GABAA2 [1]: 0.67
Relative Potentiation for GABAA1 [2]: 0.4

CCCNC(=O)c1nnc2c(-c3ccccc3)c(OC)ccc2c1N
Relative Potentiation for GABAA2 [1]: 0.08
Relative Potentiation for GABAA1 [2]: 0.12

CCCNC(=O)c1nnc2c(-c3ccc(OC(F)(F)F)cc3)cccc2c1N
Relative Potentiation for GABAA2 [1]: 0.04
Relative Potentiation for GABAA1 [2]: 0.32

CCCNC(=O)c1nnc2c(-c3cc(C(F)(F)F)cc(C(F)(F)F)c3)cccc2c1N
Relative Potentiation for GABAA2 [1]: 0.13
Relative Potentiation for GABAA1 [2]: 0.44

CCNC(=O)c1nnc2c(-c3cnc(OC)c(F)c3)cccc2c1N
Relative Potentiation for GABAA2 [1]: 0.223
Relative Potentiation for GABAA1 [2]: −0.010

COc1ccc(F)cc1-c1cccc2c(N)c(C(=O)NC3CC3)nnc12
Relative Potentiation for GABAA2 [1]: 0.357
Relative Potentiation for GABAA1 [2]: −0.028

COc1ccncc1-c1cccc2c(N)c(C(=O)NC3CC3)nnc12
Relative Potentiation for GABAA2 [1]: 0.337
Relative Potentiation for GABAA1 [2]: 0.077

COc1ncccc1-c1cccc2c(N)c(C(=O)NC3CC3)nnc12
Relative Potentiation for GABAA2 [1]: 0.247
Relative Potentiation for GABAA1 [2]: −0.054

COc1ccc(-c2cccc3c(N)c(C(=O)NC4CCC4)nnc23)c(OC)c1
Relative Potentiation for GABAA2 [1]: 0.243
Relative Potentiation for GABAA1 [2]: 0.091

Cc1ccc(-c2cccc3c(N)c(C(=O)NC4CC4)nnc23)cn1
Relative Potentiation for GABAA2 [1]: 0.074
Relative Potentiation for GABAA1 [2]: −0.166

CCNC(=O)c1nnc2c(-c3ccc(OC)cc3OC)cccc2c1N
Relative Potentiation for GABAA2 [1]: 0.104
Relative Potentiation for GABAA1 [2]: −0.006
